For the assay, the system named is potatoes. In words: sprout inhibition in a ventilated package of potatoes with a pouch of silica gel carrying 1,4-DMN. It counts as in vivo, potato. From the text: A package containing ten pounds of potatoes (approximately 5 kg) can be treated according to the instant invention with about 5 grams of silica gel contacted with 2 grams of 1,4-DMN. The substantially saturated silica gel may be placed in a pouch made of cotton fabric having a tight weave. The weave is sufficiently tight that the minute, generally less than 0.5 mm and often less than 0.2 mm, particles are retained in the fabric pouch.
The potatoes, in a plastic bag with numerous ventilation holes, may be allowed to be in a storage room without air conditioning. A single pouch may be placed in the bag with the potatoes.
For example, amounts of DMN from about 0.02 gram to about 1.0 gram per pound of potatoes (˜0.5 kg) may be effectively used. For various reasons, lower amounts are desirable, consistent with effectiveness for the amount of potatoes, volume of voids, length of residence time of the potatoes in the package and range of temperatures to be experienced.

Consider `Cc1ccc(C)c2ccccc12` [1,4-DMN, 1,4-dimethyl naphthalene], for which, under “0.2 grams of 1,4-DMN per one pound (~0.5 kg) of potatoes”, the preclusion of sprouting result is recorded as “adequately precludes sprouting”. Moreover, where the note is “ten pounds of potatoes in ventilated plastic bag, one cotton pouch with about 5 grams silica gel and 2 grams 1,4-DMN, unconditioned store room, 30 days”, the “sprouting after 30 days” value was “No significant sprouting”.

Values taken from patent US6338296B1, “Release device for slowly releasing sprout inhibitor into packages of potatoes” (priority 1996, dated 2002).
